From patent US20260262643A1, “HERBICIDAL BENZOXAZINES” (FMC CORPORATION, priority 2022, published 2026)

Assays:
galium = assay: Test C postemergence; type: in vivo, Galium aparine; details: 10 days
Summary of the method: (§1)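 Test material, in non-phytotoxic solvent with surfactant, was sprayed on the soil directly after seeding (preemergence) or on young plants of 2–10 cm with one to two leaves (postemergence). Greenhouse, 10 days; 0–100 visual control scale.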

barnyardgrass [1] = assay: Test C preemergence; type: in vivo, Echinochloa crusgalli; details: 0 to 100 scale (0 no effect, 100 complete control); for Plant response rating, Barnyardgrass: Preemergence, 500 g ai/ha, visual rating after 10 days; for Barnyardgrass plant response rating: Test C, preemergence, 125 g ai/ha
Summary of the method: as §1

sedge, umbrella = assay: Test D flooded paddy test; type: in vivo, Cyperus difformis; details: 250 g ai/ha, applied to paddy water, visual rating after 13 to 14 days, scale 0 to 100 (0 no effect, 100 complete control)
Summary of the method: (§2)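 Plants at the 2-leaf stage were grown in pots flooded to 3 cm, and compound was applied directly into the paddy water, with depth kept throughout. After 13–14 days in a greenhouse, injury was rated visually against untreated controls on a 0–100 scale (100 = complete control); a dash means not tested.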

ryegrass, Italian [2] = assay: Test C postemergence; type: in vivo, Lolium multiflorum; details: 125 g ai/ha, postemergence, 10 days; 0 to 100 scale, 0 no effect, 100 complete control
Summary of the method: as §1

barnyardgrass [3] = assay: Test C postemergence; type: in vivo, Echinochloa crusgalli; details: 10 days
Summary of the method: as §1

corn [4] = assay: Test C postemergence; type: in vivo, Zea mays; details: 10 days
Summary of the method: as §1

blackgrass [5] = assay: Test C preemergence; type: in vivo, Alopecurus myosuroides; details: 0 to 100 scale (0 no effect, 100 complete control); for Plant response rating, Blackgrass: Preemergence, 500 g ai/ha, visual rating after 10 days; for Blackgrass plant response rating: Test C, preemergence, 125 g ai/ha
Summary of the method: as §1

green foxtail [6] = assay: Test C preemergence; type: in vivo, Setaria viridis; details: preemergence, 0 to 100 scale (0 no effect, 100 complete control)
Summary of the method: as §1

oat, wild [7] = assay: Test C postemergence; type: in vivo, Avena fatua; details: 125 g ai/ha, postemergence, 10 days; 0 to 100 scale, 0 no effect, 100 complete control
Summary of the method: as §1

corn [8] = assay: Test C preemergence; type: in vivo, Zea mays; details: preemergence, 0 to 100 scale (0 no effect, 100 complete control)
Summary of the method: as §1

kochia [9] = assay: Test C preemergence; type: in vivo, Bassia scoparia; details: preemergence, 0 to 100 scale (0 no effect, 100 complete control)
Summary of the method: as §1

soybean [10] = assay: Test C postemergence; type: in vivo, Glycine max; details: 125 g ai/ha, postemergence, 10 days; 0 to 100 scale, 0 no effect, 100 complete control
Summary of the method: as §1

soybean [11] = assay: Test C preemergence; type: in vivo, Glycine max; details: preemergence, 0 to 100 scale (0 no effect, 100 complete control)
Summary of the method: as §1

kochia [12] = assay: Test C postemergence; type: in vivo, Bassia scoparia; details: 125 g ai/ha, postemergence, 10 days; 0 to 100 scale, 0 no effect, 100 complete control
Summary of the method: as §1

ragweed [13] = assay: Test C preemergence; type: in vivo, Ambrosia artemisiifolia; details: preemergence, 0 to 100 scale (0 no effect, 100 complete control)
Summary of the method: as §1

barnyardgrass [14] = assay: Test D flooded paddy test; type: in vivo, Echinochloa crus-galli; details: 250 g ai/ha, applied to paddy water, visual rating after 13 to 14 days, scale 0 to 100 (0 no effect, 100 complete control)
Summary of the method: as §2

blackgrass [15] = assay: Test C postemergence; type: in vivo, Alopecurus myosuroides; details: 10 days
Summary of the method: as §1

wheat [16] = assay: Test C postemergence; type: in vivo, Triticum aestivum; details: 125 g ai/ha, postemergence, 10 days; 0 to 100 scale, 0 no effect, 100 complete control
Summary of the method: as §1

green foxtail [17] = assay: Test C postemergence; type: in vivo, Setaria viridis; details: 10 days
Summary of the method: as §1

horseweed = assay: Test C postemergence; type: in vivo, Erigeron canadensis; details: 10 days
Summary of the method: as §1

ducksalad = assay: Test D flooded paddy test; type: in vivo, Heteranthera limosa; details: 250 g ai/ha, applied to paddy water, visual rating after 13 to 14 days, scale 0 to 100 (0 no effect, 100 complete control)
Summary of the method: as §2

ryegrass, Italian [18] = assay: Test C preemergence; type: in vivo, Lolium multiflorum; details: preemergence, 0 to 100 scale (0 no effect, 100 complete control)
Summary of the method: as §1

wheat [19] = assay: Test C preemergence; type: in vivo, Triticum aestivum; details: preemergence, 0 to 100 scale (0 no effect, 100 complete control)
Summary of the method: as §1

rice = assay: Test D flooded paddy test; type: in vivo, Oryza sativa; details: 250 g ai/ha, applied to paddy water, visual rating after 13 to 14 days, scale 0 to 100 (0 no effect, 100 complete control)
Summary of the method: as §2

pigweed, palmer [20] = assay: Test C preemergence; type: in vivo, Amaranthus palmeri; details: preemergence, 0 to 100 scale (0 no effect, 100 complete control)
Summary of the method: as §1

oat, wild [21] = assay: Test C preemergence; type: in vivo, Avena fatua; details: preemergence, 0 to 100 scale (0 no effect, 100 complete control)
Summary of the method: as §1

pigweed, palmer [22] = assay: Test C postemergence; type: in vivo, Amaranthus palmeri; details: 125 g ai/ha, postemergence, 10 days; 0 to 100 scale, 0 no effect, 100 complete control
Summary of the method: as §1

ragweed [23] = assay: Test C postemergence; type: in vivo, Ambrosia artemisiifolia; details: 125 g ai/ha, postemergence, 10 days; 0 to 100 scale, 0 no effect, 100 complete control
Summary of the method: as §1

[24] = 125 g ai/ha, postemergence, 0 to 100 scale, 0 no effect, 100 complete control
[25] = Postemergence, 500 g ai/ha, visual 0 to 100 scale (0 no effect, 100 complete control)

CCc1ccc(-n2cnc(C(C)(C)O)n2)cc1C(=O)N1C[C@H](C)Oc2c(C)cccc21 [Compound 279]
100: Plant response rating, Galium (galium; [24]) | Plant response rating, Galium (galium; [25]) | Plant response rating, Barnyardgrass (barnyardgrass [1]) | Plant response rating, Sedge, Umbrella (Flood) (sedge, umbrella) | Plant response rating, Barnyardgrass (barnyardgrass [3]; [25]) | Foxtail, Green plant response rating (green foxtail [6]; 500 g ai/ha) | Foxtail, Green plant response rating (green foxtail [6]; Test C, 125 g ai/ha) | Plant response rating, Soybean (soybean [10]) | Soybean plant response rating (soybean [11]; 500 g ai/ha) | Plant response rating, Ducksalad (Flood) (ducksalad) | Pigweed, Palmer plant response rating (pigweed, palmer [20]; 500 g ai/ha) | Pigweed, Palmer plant response rating (pigweed, palmer [20]; Test C, 125 g ai/ha)
80: Plant response rating, Oat, Wild (oat, wild [7]) | Corn plant response rating (corn [8]; 500 g ai/ha) | Plant response rating, Blackgrass (blackgrass [15]; [24]) | Plant response rating, Wheat (wheat [16]) | Oat, Wild plant response rating (oat, wild [21]; Test C, 125 g ai/ha)
60: Plant response rating, Barnyardgrass (Flood) (barnyardgrass [14]) | Wheat plant response rating (wheat [19]; Test C, 125 g ai/ha)
50: Corn plant response rating (corn [8]; Test C, 125 g ai/ha) | Plant response rating, Ragweed (ragweed [23])
20: Plant response rating, Kochia (kochia [12]) | Plant response rating, Horseweed (horseweed; [25])
90: Barnyardgrass plant response rating (barnyardgrass [1]) | Plant response rating, Ryegrass, Italian (ryegrass, Italian [2]) | Plant response rating, Barnyardgrass (barnyardgrass [3]; [24]) | Plant response rating, Corn (corn [4]; [24]) | Plant response rating, Corn (corn [4]; [25]) | Plant response rating, Blackgrass (blackgrass [5]) | Kochia plant response rating (kochia [9]; 500 g ai/ha) | Soybean plant response rating (soybean [11]; Test C, 125 g ai/ha) | Ragweed plant response rating (ragweed [13]; 500 g ai/ha) | Plant response rating, Blackgrass (blackgrass [15]; [25]) | Plant response rating, Foxtail, Green (green foxtail [17]; [24]) | Plant response rating, Foxtail, Green (green foxtail [17]; [25]) | Ryegrass, Italian plant response rating (ryegrass, Italian [18]; 500 g ai/ha) | Ryegrass, Italian plant response rating (ryegrass, Italian [18]; Test C, 125 g ai/ha) | Wheat plant response rating (wheat [19]; 500 g ai/ha) | Oat, Wild plant response rating (oat, wild [21]; 500 g ai/ha)
0: Plant response rating, Horseweed (horseweed; [24])
70: Blackgrass plant response rating (blackgrass [5]) | Kochia plant response rating (kochia [9]; Test C, 125 g ai/ha) | Ragweed plant response rating (ragweed [13]; Test C, 125 g ai/ha) | Plant response rating, Pigweed, Palmer (pigweed, palmer [22])
35: Plant response rating, Rice (Flood) (rice)

COc1ccc(-n2cnc(C(C)(C)O)n2)cc1C(=O)N1C[C@H](C)Oc2c(C)cccc21 [Compound 280]
100: Plant response rating, Galium (galium; [24]) | Plant response rating, Galium (galium; [25]) | Plant response rating, Barnyardgrass (barnyardgrass [1]) | Barnyardgrass plant response rating (barnyardgrass [1]) | Foxtail, Green plant response rating (green foxtail [6]; 500 g ai/ha) | Foxtail, Green plant response rating (green foxtail [6]; Test C, 125 g ai/ha) | Kochia plant response rating (kochia [9]; 500 g ai/ha) | Plant response rating, Soybean (soybean [10]) | Soybean plant response rating (soybean [11]; 500 g ai/ha) | Ragweed plant response rating (ragweed [13]; 500 g ai/ha) | Plant response rating, Blackgrass (blackgrass [15]; [25]) | Pigweed, Palmer plant response rating (pigweed, palmer [20]; 500 g ai/ha) | Pigweed, Palmer plant response rating (pigweed, palmer [20]; Test C, 125 g ai/ha)
80: Plant response rating, Blackgrass (blackgrass [5]) | Plant response rating, Oat, Wild (oat, wild [7]) | Plant response rating, Blackgrass (blackgrass [15]; [24]) | Plant response rating, Wheat (wheat [16])
25: Plant response rating, Barnyardgrass (Flood) (barnyardgrass [14])
60: Corn plant response rating (corn [8]; 500 g ai/ha) | Plant response rating, Kochia (kochia [12]) | Plant response rating, Foxtail, Green (green foxtail [17]; [24]) | Plant response rating, Horseweed (horseweed; [25]) | Oat, Wild plant response rating (oat, wild [21]; Test C, 125 g ai/ha)
95: Plant response rating, Sedge, Umbrella (Flood) (sedge, umbrella)
20: Plant response rating, Rice (Flood) (rice)
90: Plant response rating, Ryegrass, Italian (ryegrass, Italian [2]) | Plant response rating, Barnyardgrass (barnyardgrass [3]; [25]) | Plant response rating, Corn (corn [4]; [24]) | Plant response rating, Corn (corn [4]; [25]) | Kochia plant response rating (kochia [9]; Test C, 125 g ai/ha) | Soybean plant response rating (soybean [11]; Test C, 125 g ai/ha) | Ragweed plant response rating (ragweed [13]; Test C, 125 g ai/ha) | Plant response rating, Foxtail, Green (green foxtail [17]; [25]) | Ryegrass, Italian plant response rating (ryegrass, Italian [18]; 500 g ai/ha) | Ryegrass, Italian plant response rating (ryegrass, Italian [18]; Test C, 125 g ai/ha) | Wheat plant response rating (wheat [19]; 500 g ai/ha) | Oat, Wild plant response rating (oat, wild [21]; 500 g ai/ha)
50: Plant response rating, Barnyardgrass (barnyardgrass [3]; [24])
70: Blackgrass plant response rating (blackgrass [5]) | Plant response rating, Ducksalad (Flood) (ducksalad) | Wheat plant response rating (wheat [19]; Test C, 125 g ai/ha) | Plant response rating, Pigweed, Palmer (pigweed, palmer [22]) | Plant response rating, Ragweed (ragweed [23])
30: Corn plant response rating (corn [8]; Test C, 125 g ai/ha) | Plant response rating, Horseweed (horseweed; [24])
